Reference: US20120301895A1, “METHODS OF MODULATING BINDING OF SON OF SEVENLESS TO PHOSPHATIDIC ACID AND IDENTIFYING COMPOUNDS THAT MODULATE SUCH BINDING” (THE RESEARCH FOUNDATION OF STATE UNIVERSITY OF NEW YORK, priority 2007, published 2012)

How the values were obtained:
Ras = Ras activation pull-down assay in Cos1 cells transfected with HA-tagged Ras and Sos; format: cell-based
Description: In FIG. 14A, MDA-MB-231 cells were plated and then placed in media containing 0.5% media 24 hr later. 24 hr later, the cells were treated with either DMSO or honokiol (20 μM) as indicated for 2 hr. At this point the cells were harvested and lysates were prepared and treated with the immobilized Ras binding domain of Raf1 as in FIGS. 12A-C. Ras-GTP bound to the Raf1 binding domain was recovered and subjected to Western blot analysis using the Pan-Ras antibody. Total Ras in the cell lysates and actin levels were also examined by Western blot analysis. In FIG. 14B, MDA-MB-231 cells were plated and 24 hr later were shifted to media containing 0.5% serum. The cells were then treated with EGF (200 ng/ml) for 10 min. The cells were also treated with honokiol (20 μM) prior to the addition of EGF for the times indicated. The levels of GTP-bound Ras, total Ras, and actin were then determined as in FIG. 14A. In FIG. 14C, Cos1 cells were transfected with plasmids expressing HA-tagged Ras (50 ng) and Sos (500 ng) for 24 hours. The cells were placed in serum free media overnight in the presence of increasing concentration of honokiol. Cells were then collected and Ras activation was determined using the pull-down assay as above. Levels of Ras-GTP, Sos, and Ras were determined by Western blot analysis using an antibody that recognized HA. In FIG. 14D, Cos1 cells were tranfected with the plasmid expressing HA-tagged Ras (50 ng) for 24 hours. […] Cells were then stimulated with 100 ng/ml EGF for the indicated times (min) and Ras activation was determined as in FIG. 14A. […] Cells were then stimulated with 100 ng/ml EGF for the indicated times (min) and Ras activation was determined as in FIG. 14A. […]
To further establish that honokiol was suppressing Ras activation, the effect in Cos1 cells was examined where background Ras activation was lower. […] 24 hr later, the cells were then shifted to serum-free conditions in the presence of increasing concentrations of honokiol and the levels of Ras, Sos, and GTP-bound Ras was evaluated. […]

HIF2α = HIF2α expression in 786-O cells (Western blot); format: cell-based, human; conditions: 0.5% serum, 4 hr, honokiol 20 μM, 1-BtOH 0.8%
Description: In FIG. 15B, 786-O cells were plated and then shifted to media containing 0.5% serum 24 hr later. 18 hr later, the cells were treated with 1-Bt0H (0.8%), honokiol (Hon) (20 μM), and t-BtOH (0.8%) as indicated. Cell lysates were prepared 4 hr later and examined for HIF2α and actin expression by Western lot analysis. The experiment shown is representative of two independent experiments.
Extraction of proteins from cultured cells and Western blot analysis of extracted proteins was performed using the ECL system (Amersham) as described previously (Chen et al., “Alternative Phospholipase D/mTOR Survival Signal in Human Breast Cancer Cells,” Oncogene 24:672-9 (2005), which is hereby incorporated by reference in its entirety).
The effect of honokiol on HIF2α expression was examined in these cells.

[1] = mouse models, high concentrations; cited from earlier work
tumor growth = conditions: Bai et al. 2003; cited from earlier work

## C=CCc1ccc(O)c(-c2ccc(O)c(CC=C)c2)c1 [honokiol, Honokiol]
Ras; Cos1 cells with excess Sos, serum free overnight, at concentrations of 20 μM and higher
  Ras-GTP levels: strongly suppressed
Ras; Cos1 cells, endogenous Sos, ectopic Ras, honokiol 50 μM, EGF 100 ng/ml
  ability of EGF to increase the level of GTP-bound Ras: suppressed
Ras; Cos1 cells, honokiol 50 μM, EGF 100 ng/ml
  effect on EGF-induced Ras activation when ectopically expressed Sos was introduced: more pronounced
HIF2α
  HIF2α expression: suppresses
[1]
  tolerability: well tolerated
Tumor growth
  tumor growth in mouse xenografts: blocked tumor growth
